These results are taken from paper PMC10629583, “Specific inhibition of an anticancer target, polo-like kinase 1, by allosterically dismantling its mechanism of substrate recognition” (Proceedings of the National Academy of Sciences of the …, 2023).

Where “and” joins values, the source holds several entries; their conditions need not be identical. Equal entries are not always repeated. Bounds are passed on as bounds.

Experiment [1] addresses T1, full-length Plk1 (Homo sapiens, UniProt P53350).
T1 construct: expressed in transfected cells; host or cells: HEK293A cells infected with adenovirus; total lysate
In words: ELISA-based PBD1-binding inhibition assay. Conditions: total lysates from HEK293A cells expressing full-length Plk1; biotinylated PBIP1 p-T78 peptide; read-out: Anti-Plk1 (full length) ELISA (IC50) Mean ± SEM.

The target of experiment [2] is T2, Plk1 PBD (PBD1) (Homo sapiens, UniProt P53350).
T2 construct: constructs expressing PBD1 (residues 345–603) WT (pKM7650); His; TEV site (N); made in house; host or cells: bacteria (E. coli)
Description: FP-based inhibition assay, PBD1. It is filed as binding. How it is done: FP assays were carried out essentially as described previously ([35], [36]). […] All the samples were analyzed approximately 30 min after reaction in a 384-well format using the SpectraMax Paradigm multimode microplate detection platform (Molecular Devices). Data were analyzed after carrying out at least three independent experiments using GraphPad Prism software version 8.

Experiment [3] deals with T3, PBD1 F559D mutant (Homo sapiens, UniProt P53350, F559D).
T3 construct: constructs expressing PBD1 (residues 345–603) WT (pKM7650), F559D (pKM7878); His; TEV site (N); made in house; host or cells: bacteria (E. coli)
In words: FP-based binding/inhibition assay, PBD1 F559D. The following applies: PBD1 F559D at EC85. How it is done:
FP assays were carried out essentially as described previously ([35], [36]). FITC-conjugated ligands (15 nM) were mixed with PBDs at their EC85 concentrations. All the samples were analyzed approximately 30 min after reaction in a 384-well format using the SpectraMax Paradigm multimode microplate detection platform (Molecular Devices). Data were analyzed after carrying out at least three independent experiments using GraphPad Prism software version 8.
Fig. S4. Generation of F559 mutants for in vitro and cell-based assays in Fig. 4. (A) SDS-PAGE showing the proteins used for the FP assays in Fig. 4 A and B. CBB, a Coomassie Brilliant Blue– stained gel. (B) Summary of Kd and EC85 values for PBD1 WT and mutants. The Kd values for PBD1 WT and mutants were determined after extrapolating them from the binding curves as the concentration at which 50% of the FITC-Ahx-DPPLHSpTAI-NH2 are PBD1-bound. The EC85 values indicate the effective concentration of 85% of the maximal concentration calculated for each protein. The FP values were obtained 30 minutes after incubation. For the F559K and F559R mutants, we were not able to determine the EC85 values and therefore used 2 µM of these proteins for the assays in Fig. 4B. N.D., not determined. […]

The subject of experiment [4] is Flag-Plk1 F559D interactions with p-PBIP1, p-Bub1, p-BubR1, p-Cdc25C. In words: Coimmunoprecipitation, HeLa cells expressing Flag-Plk1 F559D. It is filed as cell-based. The following applies: 20 μM for 2 h, nocodazole + okadaic acid. As to the method:
For coimmunoprecipitation analyses shown in Figs. 1C and 4F, HeLa cells stably expressing PCMV-Flag-Plk1 WT (pKM3863) (Fig. 1C) and its respective F559D mutant (pKM7979) (Fig. 4F) were generated using a lentiviral expression system. Prior to harvest, the cells were treated with 600 nM of nocodazole and 300 nM of okadaic acid (OA) for 16 h and 1.5 h, respectively, to enrich the level of phosphorylated proteins and additionally treated with either control DMSO or 20 μM of Allopole for 2 h. Immunoprecipitation was carried out essentially as described previously ([49]) in TBSN buffer [20 mM Tris–Cl (pH 8.0), 150 mM NaCl, 0.5% NP-40, 5 mM EGTA, 2 mM MgCl2, 1.5 mM EDTA, 2 mM DTT, 20 mM p-nitrophenyl phosphate (PNPP), and protease inhibitor cocktail (Roche)] using anti-Flag antibody (Sigma-Aldrich). Immunoprecipitates were separated by sodium dodecyl sulfate–polyacrylamide gel electrophoresis (SDS-PAGE) and then immunoblotted according to standard procedures using an enhanced chemiluminescence detection system (Thermo Fisher Scientific). The antibodies that were used to detect specific indicated proteins in Fig. 1C are listed in SI Appendix, Table S6.

Experiment [5] concerns Plk1 at centrosomes and kinetochores, HeLa cells. In words: Confocal imaging of Plk1 localization in HeLa cells. It is filed as cell-based. Conditions: 10 μM, 2 h. How it is done: HeLa cells treated with either control DMSO or on 10 μM of Allopole for 2 h were immunostained using anti-Plk1 (F-8, sc-17783, Santa Cruz Biotechnologies), anti-Cep192 ([63]), and anti-CREST (#15-234, Antibodies Incorporated) antibodies and appropriate secondary antibodies, essentially as described previously ([62]). Samples were additionally stained with 2 µg/mL of Hoechst 33342 to reveal chromosomal morphologies. Images were captured using a Zeiss LSM 780 confocal microscope (Carl Zeiss Microscopy, LLC) equipped with plan-apochromat 40× (N.A. 1.3) and 63× (N.A. 1.4) oil-immersion objective lenses; a 34-channel GaAsP spectral detector; and 12-bit, 0.5-μm z-steps.
(§1) Confocal images of unsaturated fluorescence signals were acquired under the same laser intensity at the 12-bit resolution. Fluorescence intensities for identifiable centrosome and kinetochore signals were quantified after the maximum-intensity projection of z-stacks using the Zeiss ZEN v2.1 software (Carl Zeiss Microscopy, LLC). Data were quantified from three independent experiments.

Experiment [6] relates to mGFP-Plk1 WT at centrosomes, U2OS cells. In words: Confocal quantification of Pendo-mGFP-Plk1 WT in U2OS cells (siPlk1). Type of experiment: cell-based. Conditions: U2OS siPlk1, 8 μM. How it is done: To corroborate the importance of the F559 residue for Allopole-A binding, U2OS cells expressing endogenous promoter (i.e., Pendo)-controlled mGFP-Plk1 WT or F559D mutant were depleted of endogenous Plk1 by RNAi for 48 h (SI Appendix, Fig. S4C), treated with control DMSO or 8 μM of Allopole for 2 or 16 h, and fixed (SI Appendix, Fig. S4D). Afterward, the level of mGFP fluorescence was quantified using confocal microscopy (Fig. 4 C and D). As expected from the results shown in Fig. 1 C and D, Allopole delocalized mGFP-Plk1 WT from centrosomes within 2 h after treatment, and this effect was sustained for up to 16 h. […] This could be attributable to the fact that unlike PBIP1, which binds to PBD1 through the self-priming and binding mechanism ([49]), Bub1, BubR1, and likely Cdc25C require Cdc2-dependent priming phosphorylation to interact with PBD1 ([42]–[44]). […]
as §1

T2 sequence (P53350 345-603): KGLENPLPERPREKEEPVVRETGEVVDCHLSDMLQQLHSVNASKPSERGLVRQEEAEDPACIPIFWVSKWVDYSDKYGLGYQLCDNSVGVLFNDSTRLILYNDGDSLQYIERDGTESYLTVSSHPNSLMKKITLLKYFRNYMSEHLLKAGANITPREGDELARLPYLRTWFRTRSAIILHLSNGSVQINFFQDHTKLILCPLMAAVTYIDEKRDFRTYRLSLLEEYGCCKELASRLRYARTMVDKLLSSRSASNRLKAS
T3 sequence (P53350 345-603 F559D): as the sequence (P53350 345-603) above, with F215D counted along it
T1 sequence (P53350 whole entry): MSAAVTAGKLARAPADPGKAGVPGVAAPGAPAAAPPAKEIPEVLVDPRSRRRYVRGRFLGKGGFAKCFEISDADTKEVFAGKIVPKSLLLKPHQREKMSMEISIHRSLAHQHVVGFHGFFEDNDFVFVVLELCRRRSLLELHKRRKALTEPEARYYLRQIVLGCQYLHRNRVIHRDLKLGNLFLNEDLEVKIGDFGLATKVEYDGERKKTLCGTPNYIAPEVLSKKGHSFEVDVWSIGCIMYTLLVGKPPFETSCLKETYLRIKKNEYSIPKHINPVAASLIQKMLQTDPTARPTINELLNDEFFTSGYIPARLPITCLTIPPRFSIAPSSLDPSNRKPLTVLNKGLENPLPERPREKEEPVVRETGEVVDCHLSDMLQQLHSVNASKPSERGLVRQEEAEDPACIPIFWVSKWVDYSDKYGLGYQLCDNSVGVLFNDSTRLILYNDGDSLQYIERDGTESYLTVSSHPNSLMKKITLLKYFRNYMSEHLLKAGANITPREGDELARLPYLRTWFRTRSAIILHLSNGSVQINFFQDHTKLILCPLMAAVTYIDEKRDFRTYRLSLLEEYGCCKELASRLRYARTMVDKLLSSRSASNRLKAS

The IC50 is the concentration at which inhibition is half-maximal. Regarding `O=c1c2sc(Cl)cc2n2c(=S)[nH]nc2n1CC1CC1` [Allopole-A], the IC50 is 1400 nM in experiment [1]; 2.5 nM and 2.53 nM in experiment [2] (FP, bacterially expressed purified PBD, FITC-ligand 15 nM, PBD at EC85, read-out: PBD1 IC50 ± SD). For the same molecule, the entries for the “Inhibition of FITC-phosphopeptide binding (in words)” value in experiment [2] (PBD1 WT at EC85) and in experiment [3] were “effectively inhibited PBD1 WT” and “failed to inhibit”, respectively.

With `Cn1cnc([N+](=O)[O-])c1Sc1nnc2n(CC3CC3)c(=O)c3sc(Cl)cc3n12` [Allopole], the “Phosphoproteins coprecipitating with Flag-Plk1 F559D (in words)” value in experiment [4] was “coimmunoprecipitated p-PBIP1, p-Bub1, p-BubR1, and p-Cdc25C effectively”. Besides, the “Plk1 signals localized at centrosomes and kinetochores (in words)” value in experiment [5] was “greatly diminished”. Also, the “Time to delocalization of mGFP-Plk1 WT from centrosomes” value in experiment [6] is reported as no more than 2 h.
